These are literature values, as cited in patent US20080206348A1, “Cilostazol-Containing Pharmaceutical Composition Based On Particles Of Less Than 50 Micrometers” (priority 2004, published 2008).

As to `O=C1CCc2cc(OCCCCc3nnnn3C3CCCCC3)ccc2N1` [Cilostazol], the Solubility in water entry is “practically insoluble”.
